Assays:
[1] = target: Melanocortin receptor 4 (Homo sapiens) (UniProt P32245); assay: Melanocortin MC4 Eurofins-Panlabs radioligand binding assay; conditions: Compound concentration 10.0 uM
[2] = target: Cyclin-dependent kinase 7 (Homo sapiens) (UniProt P50613); assay: CDK7 DiscoveRx kinase panel; conditions: Compound concentration 1.0 uM
[3] = target: Serine/threonine-protein kinase MRCK alpha (Homo sapiens) (UniProt Q5VT25); assay: MRCKA DiscoveRx kinase panel; conditions: Compound concentration 1.0 uM
[4] = target: Protein kinase C theta type (Homo sapiens) (UniProt Q04759); assay: PRKCQ DiscoveRx kinase panel; conditions: Compound concentration 1.0 uM
[5] = target: Serine/threonine-protein kinase MRCK gamma (Homo sapiens, UniProt Q6DT37); assay: DMPK2 DiscoveRx kinase panel
Chain of Serine/threonine-protein kinase MRCK gamma (Q6DT37 whole entry): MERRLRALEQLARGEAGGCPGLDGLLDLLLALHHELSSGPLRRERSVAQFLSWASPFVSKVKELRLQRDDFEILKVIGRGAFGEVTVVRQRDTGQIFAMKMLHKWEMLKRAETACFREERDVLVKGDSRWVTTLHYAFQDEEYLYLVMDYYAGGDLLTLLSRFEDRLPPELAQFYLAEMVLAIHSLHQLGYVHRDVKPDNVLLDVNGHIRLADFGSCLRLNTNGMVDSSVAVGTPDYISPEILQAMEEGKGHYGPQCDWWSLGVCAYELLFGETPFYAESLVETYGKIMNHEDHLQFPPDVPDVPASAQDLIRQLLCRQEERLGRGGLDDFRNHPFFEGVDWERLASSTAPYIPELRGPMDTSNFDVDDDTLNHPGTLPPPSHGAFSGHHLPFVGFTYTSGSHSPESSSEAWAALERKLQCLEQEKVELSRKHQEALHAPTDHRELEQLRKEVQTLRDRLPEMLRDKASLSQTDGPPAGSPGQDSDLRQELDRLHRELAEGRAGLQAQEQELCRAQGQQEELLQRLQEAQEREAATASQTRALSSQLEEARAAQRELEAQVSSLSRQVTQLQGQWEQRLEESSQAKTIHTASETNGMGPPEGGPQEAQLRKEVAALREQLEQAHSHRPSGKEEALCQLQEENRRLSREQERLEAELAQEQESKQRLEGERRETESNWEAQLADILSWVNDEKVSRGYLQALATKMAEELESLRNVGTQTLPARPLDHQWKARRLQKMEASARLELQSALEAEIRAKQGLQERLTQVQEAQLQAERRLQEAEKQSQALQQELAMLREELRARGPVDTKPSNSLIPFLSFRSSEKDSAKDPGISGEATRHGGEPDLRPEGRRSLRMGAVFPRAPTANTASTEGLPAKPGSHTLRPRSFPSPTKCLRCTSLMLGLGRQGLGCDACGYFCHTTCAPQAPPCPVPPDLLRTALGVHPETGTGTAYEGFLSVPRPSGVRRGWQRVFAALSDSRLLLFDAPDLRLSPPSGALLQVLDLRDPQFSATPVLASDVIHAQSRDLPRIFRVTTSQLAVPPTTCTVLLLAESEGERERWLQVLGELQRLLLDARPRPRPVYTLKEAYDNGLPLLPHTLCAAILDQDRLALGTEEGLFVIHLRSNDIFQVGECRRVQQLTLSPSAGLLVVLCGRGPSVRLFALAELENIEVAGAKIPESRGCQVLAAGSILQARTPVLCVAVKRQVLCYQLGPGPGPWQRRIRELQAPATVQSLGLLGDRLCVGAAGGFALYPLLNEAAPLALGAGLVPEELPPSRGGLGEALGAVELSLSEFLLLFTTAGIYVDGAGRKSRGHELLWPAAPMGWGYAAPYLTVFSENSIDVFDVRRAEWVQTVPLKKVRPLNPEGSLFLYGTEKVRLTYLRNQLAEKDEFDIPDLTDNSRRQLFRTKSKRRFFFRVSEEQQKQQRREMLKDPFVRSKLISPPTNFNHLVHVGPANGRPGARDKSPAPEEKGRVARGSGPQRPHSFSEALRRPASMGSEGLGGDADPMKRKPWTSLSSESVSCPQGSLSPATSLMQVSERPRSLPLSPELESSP

[6] = target: CDK4/Cyclin D3 (Homo sapiens) (UniProt P11802+P30281); assay: CDK4-cyclinD3 DiscoveRx kinase panel; assay type: protein-complex assay; conditions: Compound concentration 1.0 uM
[7] = target: GABA-A receptor; anion channel (Rattus norvegicus) (UniProt O09028+P15431+P18506+P18508+P19969+P20236+P23574+P23576+P28471+P28473+P30191+P62813+P63079+P63138+Q91ZM7+Q9ES14); conditions: Compound concentration 10.0 uM
[8] = target: Non-receptor tyrosine-protein kinase TYK2 (Homo sapiens) (UniProt P29597); assay: TYK2(JH2domain-pseudokinase) DiscoveRx kinase panel; conditions: Compound concentration 1.0 uM
[9] = target: Megakaryocyte-associated tyrosine-protein kinase (Homo sapiens) (UniProt P42679); assay: CTK DiscoveRx kinase panel; conditions: Compound concentration 1.0 uM
[10] = target: Ephrin type-A receptor 1 (Homo sapiens) (UniProt P21709); assay: EPHA1 DiscoveRx kinase panel; conditions: Compound concentration 1.0 uM
[11] = target: Hormonally up-regulated neu tumor-associated kinase (Homo sapiens) (UniProt P57058); assay: HUNK DiscoveRx kinase panel; conditions: Compound concentration 1.0 uM
Chain of Hormonally up-regulated neu tumor-associated kinase (Homo sapiens) (P57058 whole entry, canonical isoform): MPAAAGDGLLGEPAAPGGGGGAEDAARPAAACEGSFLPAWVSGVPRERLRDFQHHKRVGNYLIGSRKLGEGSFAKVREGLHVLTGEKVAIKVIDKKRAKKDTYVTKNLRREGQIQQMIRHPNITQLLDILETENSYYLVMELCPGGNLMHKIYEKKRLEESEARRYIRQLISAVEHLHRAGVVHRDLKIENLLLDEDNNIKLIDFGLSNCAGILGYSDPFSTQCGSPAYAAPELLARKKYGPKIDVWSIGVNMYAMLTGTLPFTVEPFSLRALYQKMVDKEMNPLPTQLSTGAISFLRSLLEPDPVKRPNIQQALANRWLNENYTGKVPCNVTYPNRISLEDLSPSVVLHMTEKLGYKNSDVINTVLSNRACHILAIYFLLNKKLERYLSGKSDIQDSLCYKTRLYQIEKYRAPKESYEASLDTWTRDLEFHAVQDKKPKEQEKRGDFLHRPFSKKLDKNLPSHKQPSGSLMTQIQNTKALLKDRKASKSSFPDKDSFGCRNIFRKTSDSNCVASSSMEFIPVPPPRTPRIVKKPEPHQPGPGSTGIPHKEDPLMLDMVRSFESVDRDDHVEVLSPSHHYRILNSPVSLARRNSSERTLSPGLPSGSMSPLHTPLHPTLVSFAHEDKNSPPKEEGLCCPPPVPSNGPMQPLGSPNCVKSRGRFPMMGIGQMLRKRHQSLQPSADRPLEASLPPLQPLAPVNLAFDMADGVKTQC

[12] = target: Casein kinase I isoform delta (Homo sapiens) (UniProt P48730); assay: CSNK1D DiscoveRx kinase panel; conditions: Compound concentration 1.0 uM
[13] = target: cGMP-dependent protein kinase 1 (Homo sapiens) (UniProt Q13976); assay: PRKG1 DiscoveRx kinase panel; conditions: Compound concentration 1.0 uM
[14] = target: Cyclin-dependent kinase 11A (Homo sapiens) (UniProt Q9UQ88); assay: CDC2L2 DiscoveRx kinase panel; conditions: Compound concentration 1.0 uM
[15] = target: Bone morphogenetic protein receptor type-2 (Homo sapiens) (UniProt Q13873); assay: BMPR2 DiscoveRx kinase panel; conditions: Compound concentration 1.0 uM
[16] = target: Protein kinase C delta type (Homo sapiens) (UniProt Q05655); assay: PRKCD DiscoveRx kinase panel; conditions: Compound concentration 1.0 uM
Chain of Protein kinase C delta type (Homo sapiens) (Q05655 whole entry, looked up): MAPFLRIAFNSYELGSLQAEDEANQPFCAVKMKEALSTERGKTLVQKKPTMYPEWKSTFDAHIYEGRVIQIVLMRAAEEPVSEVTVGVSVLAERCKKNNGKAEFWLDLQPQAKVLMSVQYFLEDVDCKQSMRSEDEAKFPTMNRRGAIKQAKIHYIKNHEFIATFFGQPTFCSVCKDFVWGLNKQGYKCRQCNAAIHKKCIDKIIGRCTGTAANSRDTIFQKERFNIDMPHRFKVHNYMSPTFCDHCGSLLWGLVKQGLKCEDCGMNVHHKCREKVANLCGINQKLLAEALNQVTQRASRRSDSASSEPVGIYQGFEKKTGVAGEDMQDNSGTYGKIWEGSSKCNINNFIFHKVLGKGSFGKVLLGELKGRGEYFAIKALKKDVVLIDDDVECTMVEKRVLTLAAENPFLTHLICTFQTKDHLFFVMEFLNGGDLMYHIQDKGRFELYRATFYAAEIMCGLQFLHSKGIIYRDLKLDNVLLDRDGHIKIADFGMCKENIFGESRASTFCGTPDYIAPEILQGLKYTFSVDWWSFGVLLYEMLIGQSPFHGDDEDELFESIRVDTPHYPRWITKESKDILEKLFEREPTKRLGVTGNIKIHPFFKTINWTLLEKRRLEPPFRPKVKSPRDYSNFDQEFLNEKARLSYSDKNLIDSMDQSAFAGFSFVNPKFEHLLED

[17] = target: 5-hydroxytryptamine receptor 1B (Homo sapiens) (UniProt P28222); conditions: Compound concentration 10.0 uM
[18] = target: Mitogen-activated protein kinase kinase kinase 20 (Homo sapiens) (UniProt Q9NYL2); assay: ZAK DiscoveRx kinase panel; conditions: Compound concentration 1.0 uM
[19] = target: Calcium/calmodulin-dependent protein kinase type 1D (Homo sapiens) (UniProt Q8IU85); assay: CAMK1D DiscoveRx kinase panel; conditions: Compound concentration 1.0 uM
[20] = target: Serine/threonine-protein kinase tousled-like 2 (Homo sapiens) (UniProt Q86UE8); assay: TLK2 DiscoveRx kinase panel; conditions: Compound concentration 1.0 uM
[21] = target: Serine/threonine-protein kinase PLK2 (Homo sapiens) (UniProt Q9NYY3); assay: PLK2 DiscoveRx kinase panel; conditions: Compound concentration 1.0 uM
[22] = target: Insulin receptor-related protein (Homo sapiens) (UniProt P14616); assay: INSRR DiscoveRx kinase panel; conditions: Compound concentration 1.0 uM
Chain of Insulin receptor-related protein (Homo sapiens) (P14616 27-742 limits assumed): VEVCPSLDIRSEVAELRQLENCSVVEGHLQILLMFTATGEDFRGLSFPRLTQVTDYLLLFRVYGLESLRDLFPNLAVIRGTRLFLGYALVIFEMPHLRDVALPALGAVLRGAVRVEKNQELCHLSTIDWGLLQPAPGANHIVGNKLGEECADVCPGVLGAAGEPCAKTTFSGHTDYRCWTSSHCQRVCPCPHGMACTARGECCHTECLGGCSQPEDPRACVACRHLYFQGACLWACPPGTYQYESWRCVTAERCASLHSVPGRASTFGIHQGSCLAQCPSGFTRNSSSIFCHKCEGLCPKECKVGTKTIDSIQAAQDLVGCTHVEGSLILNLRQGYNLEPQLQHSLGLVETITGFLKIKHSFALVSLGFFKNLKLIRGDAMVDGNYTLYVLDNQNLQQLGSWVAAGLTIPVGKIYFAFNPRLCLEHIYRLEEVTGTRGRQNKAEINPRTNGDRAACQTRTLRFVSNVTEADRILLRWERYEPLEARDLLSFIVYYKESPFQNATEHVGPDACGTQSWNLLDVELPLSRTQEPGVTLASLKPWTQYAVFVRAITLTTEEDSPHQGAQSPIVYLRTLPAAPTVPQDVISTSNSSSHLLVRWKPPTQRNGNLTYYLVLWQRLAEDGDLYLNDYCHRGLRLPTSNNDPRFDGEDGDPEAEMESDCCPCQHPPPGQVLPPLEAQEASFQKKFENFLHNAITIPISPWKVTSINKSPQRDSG
Chain of Insulin receptor-related protein (Homo sapiens) (P14616 747-1297 limits assumed): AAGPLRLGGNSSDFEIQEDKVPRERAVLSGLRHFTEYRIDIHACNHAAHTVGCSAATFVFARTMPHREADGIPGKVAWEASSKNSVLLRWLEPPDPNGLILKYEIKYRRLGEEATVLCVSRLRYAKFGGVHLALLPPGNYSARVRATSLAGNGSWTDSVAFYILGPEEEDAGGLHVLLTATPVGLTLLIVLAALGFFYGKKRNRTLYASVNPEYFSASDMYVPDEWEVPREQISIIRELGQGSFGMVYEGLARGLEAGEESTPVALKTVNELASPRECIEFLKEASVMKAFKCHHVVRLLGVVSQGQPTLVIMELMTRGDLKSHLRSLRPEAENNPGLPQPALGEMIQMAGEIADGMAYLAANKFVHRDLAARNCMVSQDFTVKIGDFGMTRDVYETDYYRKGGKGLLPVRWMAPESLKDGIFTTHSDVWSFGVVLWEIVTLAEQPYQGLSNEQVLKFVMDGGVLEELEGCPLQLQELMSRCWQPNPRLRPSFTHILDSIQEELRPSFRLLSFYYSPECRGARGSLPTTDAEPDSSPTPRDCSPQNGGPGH

[23] = target: Phosphatidylinositol 4-phosphate 5-kinase type-1 alpha (Homo sapiens) (UniProt Q99755); assay: PIP5K1A DiscoveRx kinase panel; conditions: Compound concentration 1.0 uM
[24] = target: Myosin-IIIb (Homo sapiens) (UniProt Q8WXR4); assay: MYO3B DiscoveRx kinase panel; conditions: Compound concentration 1.0 uM
[25] = target: Serine/threonine-protein kinase 10 (Homo sapiens, UniProt O94804); assay: LOK DiscoveRx kinase panel
[26] = target: Phosphatidylinositol 3-kinase catalytic subunit type 3 (Homo sapiens) (UniProt Q8NEB9); assay: VPS34 DiscoveRx kinase panel; conditions: Compound concentration 1.0 uM
[27] = target: Tyrosine-protein kinase JAK3 (Homo sapiens) (UniProt P52333); assay: JAK3(JH1domain-catalytic) DiscoveRx kinase panel; conditions: Compound concentration 1.0 uM
[28] = target: Beta-2 adrenergic receptor (Homo sapiens) (UniProt P07550); conditions: Compound concentration 10.0 uM
[29] = target: Serine/threonine-protein kinase WNK3 (Homo sapiens) (UniProt Q9BYP7); assay: WNK3 DiscoveRx kinase panel; conditions: Compound concentration 1.0 uM
[30] = target: TRAF2 and NCK-interacting protein kinase (Homo sapiens) (UniProt Q9UKE5); assay: TNIK DiscoveRx kinase panel; conditions: Compound concentration 1.0 uM
Caco-2 = assay: Caco2 cell line Proliferation assay; assay type: functional, Homo sapiens; conditions: time 4 day
[31] = target: Cyclin-dependent kinase 5 (Homo sapiens) (UniProt Q00535); assay: CDK5 DiscoveRx kinase panel; conditions: Compound concentration 1.0 uM
[32] = target: Protein kinase C iota type (Homo sapiens) (UniProt P41743); assay: PRKCI DiscoveRx kinase panel; conditions: Compound concentration 1.0 uM
[33] = target: Mitotic checkpoint serine/threonine-protein kinase BUB1 (Homo sapiens, UniProt O43683); assay: BUB1 biochemical assay (high ATP)
[34] = target: 5-hydroxytryptamine receptor 7 (Homo sapiens, UniProt P34969); assay: GPCRScan assay: inhibition of 5-HT7A; parameters: radioligand conc. used [nm] 5.0 – 6.0, parental cells Stable HEK
Chain of 5-hydroxytryptamine receptor 7 (P34969 whole entry): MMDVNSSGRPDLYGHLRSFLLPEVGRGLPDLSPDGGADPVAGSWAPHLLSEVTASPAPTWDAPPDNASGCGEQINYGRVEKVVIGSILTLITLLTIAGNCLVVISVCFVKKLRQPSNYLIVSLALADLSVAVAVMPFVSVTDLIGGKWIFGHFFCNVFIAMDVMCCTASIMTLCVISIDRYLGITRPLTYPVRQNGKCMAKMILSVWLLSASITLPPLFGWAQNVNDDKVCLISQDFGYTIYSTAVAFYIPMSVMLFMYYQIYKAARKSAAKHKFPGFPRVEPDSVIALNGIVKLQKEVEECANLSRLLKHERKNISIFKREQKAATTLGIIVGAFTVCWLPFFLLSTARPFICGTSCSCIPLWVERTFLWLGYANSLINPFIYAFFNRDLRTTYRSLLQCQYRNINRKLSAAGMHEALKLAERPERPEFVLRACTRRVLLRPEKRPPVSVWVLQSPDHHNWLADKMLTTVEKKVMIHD

[35] = target: Tyrosine-protein kinase JAK2 (Homo sapiens) (UniProt O60674); assay: JAK2(JH1domain-catalytic) DiscoveRx kinase panel; conditions: Compound concentration 1.0 uM
[36] = target: Receptor tyrosine-protein kinase erbB-4 (Homo sapiens) (UniProt Q15303); assay: ERBB4 DiscoveRx kinase panel; conditions: Compound concentration 1.0 uM
[37] = target: Serine/threonine-protein kinase 33 (Homo sapiens) (UniProt Q9BYT3); assay: STK33 DiscoveRx kinase panel; conditions: Compound concentration 1.0 uM
[38] = target: Mitogen-activated protein kinase 3 (Homo sapiens) (UniProt P27361); assay: ERK1 DiscoveRx kinase panel; conditions: Compound concentration 1.0 uM
[39] = target: Macrophage colony-stimulating factor 1 receptor (Homo sapiens) (UniProt P07333); assay: CSF1R DiscoveRx kinase panel; conditions: Compound concentration 1.0 uM
[40] = target: Receptor-type tyrosine-protein kinase FLT3 (Homo sapiens) (UniProt P36888); assay: FLT3 DiscoveRx kinase panel; conditions: Compound concentration 1.0 uM
[41] = target: Vasopressin V1a receptor (Homo sapiens) (UniProt P37288); assay: Vasopressin V1A Eurofins-Panlabs radioligand binding assay; conditions: Compound concentration 10.0 uM
[42] = target: Interleukin-1 receptor-associated kinase 4 (Homo sapiens) (UniProt Q9NWZ3); assay: IRAK4 DiscoveRx kinase panel; conditions: Compound concentration 1.0 uM
[43] = target: Serine/threonine-protein kinase 24 (Homo sapiens) (UniProt Q9Y6E0); assay: MST3 DiscoveRx kinase panel; conditions: Compound concentration 1.0 uM
[44] = target: STE20/SPS1-related proline-alanine-rich protein kinase (Homo sapiens) (UniProt Q9UEW8); assay: STK39 DiscoveRx kinase panel; conditions: Compound concentration 1.0 uM
[45] = target: NT-3 growth factor receptor (Homo sapiens) (UniProt Q16288); assay: TRKC DiscoveRx kinase panel; conditions: Compound concentration 1.0 uM
[46] = target: Tyrosine-protein kinase Fgr (Homo sapiens) (UniProt P09769); assay: FGR DiscoveRx kinase panel; conditions: Compound concentration 1.0 uM
[47] = target: Myosin light chain kinase 2, skeletal/cardiac muscle (Homo sapiens) (UniProt Q9H1R3); assay: MYLK2 DiscoveRx kinase panel; conditions: Compound concentration 1.0 uM

Chain of Cyclin-dependent kinase 7 (Homo sapiens) (P50613 whole entry): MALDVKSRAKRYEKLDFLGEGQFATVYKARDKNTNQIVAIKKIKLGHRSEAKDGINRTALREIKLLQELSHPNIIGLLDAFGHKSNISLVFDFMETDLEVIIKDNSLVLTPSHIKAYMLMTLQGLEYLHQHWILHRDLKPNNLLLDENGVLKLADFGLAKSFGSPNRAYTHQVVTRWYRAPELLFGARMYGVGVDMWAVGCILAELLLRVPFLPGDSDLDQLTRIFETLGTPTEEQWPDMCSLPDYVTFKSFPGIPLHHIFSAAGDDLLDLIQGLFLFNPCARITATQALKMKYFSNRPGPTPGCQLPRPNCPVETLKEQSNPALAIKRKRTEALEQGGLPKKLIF

SMILES: COc1cnccc1Nc1nc(-c2nn(Cc3c(F)cc(OCCO)cc3F)c3ccccc23)ncc1OC
- inhibition [1]: 10%
- residual activity [2]: 100%
- residual activity [3]: 72%
- residual activity [4]: 77%
- Kd [5]: 850 nM
- residual activity ([5]; Compound concentration 1.0 uM): 22%
- residual activity [6]: 100%
- inhibition [7]: 60%
- residual activity [8]: 100%
- residual activity [9]: 97%
- residual activity [10]: 65%
- residual activity [11]: 99%
- residual activity [12]: 68%
- residual activity [13]: 74%
- residual activity [14]: 100%
- residual activity [15]: 100%
- residual activity [16]: 80%
- inhibition [17]: 11.8%
- residual activity [18]: 42%
- residual activity [19]: 83%
- residual activity [20]: 96%
- residual activity [21]: 100%
- residual activity [22]: 96%
- residual activity [23]: 83%
- residual activity [24]: 91%
- residual activity [25]: 57%
- residual activity ([25]; Compound concentration 1.0 uM): 0.6%
- residual activity [26]: 55%
- residual activity [27]: 87%
- inhibition [28]: 10%
- residual activity [29]: 87%
- residual activity [30]: 100%
- Cell Proliferation IC50 (Caco-2): 1000 nM
- residual activity [31]: 81%
- residual activity [32]: 87%
- IC50 [33]: 1900 nM (not active)
- Ki [34]: > 10000 nM
- pKi [34]: < 5
- residual activity [35]: 100%
- residual activity [36]: 100%
- residual activity [37]: 100%
- residual activity [38]: 88%
- residual activity [39]: 99%
- residual activity [40]: 88%
- inhibition [41]: 11%
- residual activity [42]: 100%
- residual activity [43]: 100%
- residual activity [44]: 97%
- residual activity [45]: 98%
- residual activity [46]: 92%
- residual activity [47]: 69%

— ChEMBL document CHEMBL5058649, “Data for DCP probe BAY 1816032” (2022)
